The source made the active and inactive calls.
What was measured:
Vero [1] = assay: West Nile virus antiviral activity, cell-based, CPE readout (AID 1621); assay type: functional; conditions: Chlorocebus sabaeus
Vero [2] = assay: West Nile virus CPE inhibition, SAR follow-up, cell-based, synthesized analogs (AID 2238); assay type: functional; conditions: Chlorocebus sabaeus
Vero [3] = assay: cytotoxicity of synthesized analogs in Vero 76, SAR follow-up, cytotoxicity control for West Nile virus antiviral project, Vero 76 cells (AID 2414); assay type: functional; conditions: Chlorocebus sabaeus
Vero [4] = assay: cytotoxicity of synthesized analogs in Vero cells, SAR follow-up, cytotoxicity control for West Nile virus antiviral project, cell-based, set II (AID 2402); assay type: functional; conditions: Chlorocebus sabaeus
Vero [5] = assay: Vero E6 cell cytotoxicity, SAR follow-up, cytotoxicity control for West Nile virus antiviral project, synthesized analogs (AID 2244); assay type: functional; conditions: Chlorocebus sabaeus
Vero [6] = assay: West Nile virus cytopathic effect inhibition, cell-based (AID 2419); assay type: functional; conditions: Chlorocebus sabaeus
[7] = A Cell Based Assay for the Identification of Probe candidate Compounds with Anti- Venezuelan Equine Encephalitis virus. [Related pubchem assays: 2409, 2419, 1621, 2238, 2405, 2024, 2065, 2402, 2414, 1635, 1650, 2244 ]; assay type: functional
[8] = molecular target: T1, Kappa-type opioid receptor (Homo sapiens, UniProt P41145); assay: SAR analysis of Antagonists of the Kappa Opioid Receptor (KOR) using an Image-Based Assay - Set 3. [Related pubchem assays (depositor defined):AID1777, AID1785]; assay type: functional
[9] = molecular target: T1, Kappa-type opioid receptor; assay: SAR analysis of small molecule antagonists of the kappa opioid receptor via a luminescent beta-arrestin assay - Set 3. [Related pubchem assays (depositor defined):AID1777, AID1778, AID1785, AID1786, AID1966, AID2133, AID2136, AID2285, AID2495]; assay type: functional
Mu-type opioid receptor = Mu-type opioid receptor (Homo sapiens, UniProt P35372); assay: SAR Analysis of Antagonists of the MOR Receptor using an Image-Based Assay - Set 3. [Related pubchem assays (depositor defined):AID1777, AID1785, AID1786, AID1966, AID2133, AID2136, AID2284, AID2285, AID2420]; assay type: functional
[10] = molecular target: Delta-type opioid receptor (Homo sapiens, UniProt P41143); assay: SAR Analysis of Antagonists of the DOR Receptor using an Image-Based Assay - Set 3. [Related pubchem assays (depositor defined):AID1777, AID1785]; assay type: functional;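 also: U2OS cells expressing DOR1 and beta-arrestin GFP stimulated with 100 nM SNC80; imaging of GFP-tagged beta-arrestin moving into spots after receptor activation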
[11] = molecular target: T2, G-protein coupled receptor 35 (Homo sapiens, UniProt Q9HC97); assay: SAR analysis of Antagonists of the GPR35 Receptor using an Image-Based Assay - Set 5. [Related pubchem assays (depositor defined):AID2058, AID2079]; assay type: functional
[12] = molecular target: G-protein coupled receptor 55 (Homo sapiens, UniProt Q9Y2T6); assay: SAR Analysis of Selective Antagonists of GPR55 using an Image-Based Assay - Set 3. [Related pubchem assays (depositor defined):AID2058, AID2079]; assay type: functional
[13] = molecular target: T2, G-protein coupled receptor 35; assay: SAR Analysis for the identification of Selective Antagonists of ERK1/2 Activity in GPR35-Overexpressing U2OS Cells - Set 2. [Related pubchem assays (depositor defined):AID2058, AID2079]; assay type: functional, cell-based

T1 sequence (P41145 whole entry): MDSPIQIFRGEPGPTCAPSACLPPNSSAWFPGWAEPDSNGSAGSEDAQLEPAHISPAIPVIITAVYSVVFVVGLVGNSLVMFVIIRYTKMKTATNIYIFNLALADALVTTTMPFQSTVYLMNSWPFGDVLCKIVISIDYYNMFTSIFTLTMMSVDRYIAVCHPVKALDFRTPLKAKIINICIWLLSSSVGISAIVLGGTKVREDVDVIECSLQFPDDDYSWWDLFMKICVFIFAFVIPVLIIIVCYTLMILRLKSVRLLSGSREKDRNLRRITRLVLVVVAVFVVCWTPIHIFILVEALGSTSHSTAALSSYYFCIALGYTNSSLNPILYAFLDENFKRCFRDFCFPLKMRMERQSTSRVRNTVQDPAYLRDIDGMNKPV
T2 sequence (Q9HC97 whole entry): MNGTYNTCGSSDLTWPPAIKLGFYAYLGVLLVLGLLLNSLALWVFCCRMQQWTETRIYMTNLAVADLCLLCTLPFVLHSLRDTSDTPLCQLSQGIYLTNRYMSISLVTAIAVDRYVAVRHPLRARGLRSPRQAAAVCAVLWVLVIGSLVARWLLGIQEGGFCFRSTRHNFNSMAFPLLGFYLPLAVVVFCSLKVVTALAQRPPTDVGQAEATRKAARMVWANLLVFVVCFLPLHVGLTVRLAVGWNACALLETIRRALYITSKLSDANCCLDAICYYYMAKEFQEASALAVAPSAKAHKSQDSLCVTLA
Chain of G-protein coupled receptor 55 (Q9Y2T6 whole entry): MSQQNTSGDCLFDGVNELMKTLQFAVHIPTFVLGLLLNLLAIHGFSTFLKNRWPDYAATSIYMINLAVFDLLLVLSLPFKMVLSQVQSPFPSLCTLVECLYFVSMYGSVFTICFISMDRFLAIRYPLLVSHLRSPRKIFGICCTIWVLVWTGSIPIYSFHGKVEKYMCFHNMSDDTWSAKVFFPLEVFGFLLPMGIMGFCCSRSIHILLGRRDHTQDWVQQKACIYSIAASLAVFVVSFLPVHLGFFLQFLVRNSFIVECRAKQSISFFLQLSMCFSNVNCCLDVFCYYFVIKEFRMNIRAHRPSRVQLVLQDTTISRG
Chain of Delta-type opioid receptor (P41143 whole entry): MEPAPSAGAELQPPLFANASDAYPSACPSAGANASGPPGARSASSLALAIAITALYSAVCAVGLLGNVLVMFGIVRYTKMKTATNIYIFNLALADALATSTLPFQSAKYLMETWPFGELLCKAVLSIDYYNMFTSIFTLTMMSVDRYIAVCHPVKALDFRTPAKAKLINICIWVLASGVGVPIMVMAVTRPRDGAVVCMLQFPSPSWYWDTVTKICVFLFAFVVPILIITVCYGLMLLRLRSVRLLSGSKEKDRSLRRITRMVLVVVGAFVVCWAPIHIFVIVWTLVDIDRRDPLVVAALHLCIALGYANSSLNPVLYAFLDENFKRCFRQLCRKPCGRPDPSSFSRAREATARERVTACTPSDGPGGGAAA
Chain of Mu-type opioid receptor (P35372 whole entry): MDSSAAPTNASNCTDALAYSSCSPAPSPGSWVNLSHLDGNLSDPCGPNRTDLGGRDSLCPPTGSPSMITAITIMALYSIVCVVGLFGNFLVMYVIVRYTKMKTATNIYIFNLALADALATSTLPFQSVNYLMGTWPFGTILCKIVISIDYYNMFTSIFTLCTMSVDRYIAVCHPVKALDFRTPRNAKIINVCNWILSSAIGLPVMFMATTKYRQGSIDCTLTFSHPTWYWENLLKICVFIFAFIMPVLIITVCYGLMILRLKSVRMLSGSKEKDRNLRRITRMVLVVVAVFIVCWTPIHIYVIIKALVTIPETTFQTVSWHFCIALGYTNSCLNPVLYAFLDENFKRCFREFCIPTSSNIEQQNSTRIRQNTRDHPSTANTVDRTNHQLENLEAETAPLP

## CN(C)CCCN1c2ccc([N+](=O)[O-])cc2CCc2cc([N+](=O)[O-])ccc21
Vero [1]
  IC50: 10.8 µM (active)
Vero [2]
  IC50: 13.9 µM (active)
Vero [3]
  CC50: 18.5 µM (active)
Vero [4]
  CC50: 15.4 µM (active)
Vero [5]
  CC50: 21.6 µM (active)
Vero [6]
  IC50: 11.4 µM (active)
[7]
  IC50: 8.59 µM (active)

## Cc1cccc(S(=O)(=O)NCc2ccc(C(=O)NCCN3Cc4ccccc4C3)cc2)c1
[8]
  IC50: > 32 µM (inactive)
[9]
  IC50: > 20 µM (inactive)
Mu-type opioid receptor
  IC50: > 32 µM (inactive)
[10]
  IC50: > 32 µM (inactive)

## CNC(=S)N/N=C/c1c(C(=O)OC)cnn1-c1ccc(Cl)cc1
[11]
  IC50: 1.25 µM (active)
[12]
  IC50: > 32 µM (inactive)
[13]
  IC50: 4.11 µM (active)
